The results in this text go back to USRE42072E1, “Compositions and methods for enhancing receptor-mediated cellular internalization” (The Penn State Research Foundation, priority 1996, dated 2011).

Where two headings read alike, the source gives them in different places.

Data set [1] deals with luteinizing hormone (LH). In words: Chronic daily vaginal dosing of DES in gel to suppress LH secretion, ovariectomized sheep without steroids. The format is in vivo. Particulars: no steroid. Here is the method:
The objective was to determine if chronic vaginal dosing with 200 μg of deslorelin (“DES”) in gel would be able to suppress secretion of LH. […] doses of DES will result in the down-regulation of the anterior pituitary gland in sheep. Ovariectomized sheep were used for the study, since they secrete high levels of LH in the-absence of ovarian steroids. The sheep were dosed daily with DES in 5 mL of gel, or gel only for 17 days. A single blood sample was collected by jugular venipuncture. Plasma was collected and assayed for LH.

Data set [2] relates to luteinizing hormone (LH). In words: CIDR device control study: LH release after vaginal DES. Type of data set: in vivo, sheep. On the procedure:
Another study provided information about the role of the silastic CIDR device itself in the delivery process. The study was based on concern that the CIDR might be damaging the vaginal mucosa, allowing for GnRH transport by a non-selective mechanism. CIDR devices were inserted into six ewes. Five days later, all ewes were treated vaginally with DES. […] After the initial dosing, three ewes were treated with DES and three with gel alone every day for 18 days. At the end of the 18-day treatment period, all ewes were again treated with DES in gel. […] Consequently, by the time the second DES administration was given, the CIDR devices had been in place for approximately 24 days. The ewes therefore were no longer receiving adequate amounts of progesterone locally to maintain the vaginal transport system.

In data set [3] the test system is luteinizing hormone (LH). The data set can be described thus: LH release after DES in gel in ewes given systemic depot progesterone and ear implants of synthetic progestogen. Type of data set: in vivo, sheep. On the procedure:
An attempt was made to treat ewes with progesterone using the systemic administration of a depot form of progesterone and ear implants of a synthetic progestogen. Pituitary release of LH was poor following the vaginal administration of DES in gel. When LH release in these animals was not observed, the gel from the same preparations used vaginally was injected subcutaneously. LH release was then obtained, confirming that the DES/gel preparations contained biologically active material. Given the consistent responses obtained in earlier experiments and those obtained more recently using the CIDR delivery system, it was concluded that the progesterone (generally) should be applied directly to the vagina in order to achieve sufficient local concentrations. Given that luteal phase sheep also respond well, systemic administration of greater amounts of progesterone than used here, in formulations that will maintain consistently high concentrations in the blood, should also work.

Data set [4] deals with luteinizing hormone (LH). In words: Daily vaginal DES in progesterone-primed ovariectomized ewes: basal LH and pituitary responsiveness. The format is in vivo, sheep. On the procedure: The objective of this study was to determine if daily vaginal administration of DES in progesterone-primed ewes would cause a reduction in basal LH secretion and loss of pituitary responsiveness of GnRH. Six ovariectomized ewes were used for the study. Vaginal CIDR devices containing progesterone were inserted. Twenty-four hours later, ewes were dosed daily with 200 μg of DES (GnRH agonist) in 5 mL of gel. Each day, blood samples were collected at 0 and 120 minutes post-treatment. These times were selected in order to evaluate changes in basal secretion of LH (time 0) and the peak LH response following GnRH administration (time 120).

Data set [5] concerns luteinizing hormone (LH). Type of data set: in vivo, sheep. Here is the method:
Ewes (n=12) were treated with progesterone using a vaginal CIDR device. In addition, six sheep received a 15 mm silastic implant of estradiol. Five days later, all sheep were treated vaginally with 200 μg of DES in gel. Blood samples were taken every 30 minutes for 2 hours following treatment and then every 60 minutes for an additional four hours.

Data set [6] can be described thus: Bioavailability of peptides after vaginal administration to sheep, relative to intravenous injection. Particulars: female, sheep, in vivo. Here is the method:
(§1) First, a peptide that undergoes receptor-mediated transport across the vaginal epithelium was identified by studying the permeation of peptides of varying molecular weight in a sheep model. Peptides were delivered vaginally to sheep in 5 ml of aqueous or methocel solutions with typical peptide concentrations of 10-40 μg/ml. A group of 18 intact ewes were utilized for these experiments. For each study, sheep were randomly assigned to a treatment group. In GnRH studies where each animal received all possible treatment combinations, each animal was assigned to an initial treatment group at random and subsequently randomly to each of the remaining treatment groups. A minimum of 5 days (typically 10 or more days) was allowed between experiments on a given animal, to provide sufficient time for complete recovery of pituitary responsiveness to the highest doses of the GnRH agonist used A 16G 150 mm jugular catheter (Abbocath-T, Abbott Laboratories, Chicago, Ill.) was inserted and blood samples collected at 0, 30, 60, 90, 120, 180, 240, 360, 480 and 1440 min. after treatment. Luteinizing hormone (LH) levels were determined.
LHRH analog was placed in methyl cellulose solutions (“methocels”) of varying apparent viscosity. […] First, 200 μg of leuprolide acetate in 5 ml of aqueous solutions with melhocel weight concentrations varying between 0% and 3.0% were vaginally administered.
The enhanced bioavailability of LHRH also coincides with a longer-term release into the systemic circulation at the optimal methocel concentrations. […] To test this hypothesis, the efficacy of a second, physically cross-linked hydrogel that was believed would not enhance endocytosis, but whose apparent viscosity (in the range of hydrogel concentrations 0.0-5.5%) was similar to that of the methocels (in the range 0.0-3.0%) was examined.

The subject of data set [7] is serum cortisol. The data set can be described thus: Serum cortisol response to iv injection and vaginal administration of vasopressin. Type of data set: in vivo, sheep. Here is the method:
FIGS. 1a and 1b are graphs showing serum responses to iv injection and vacinal administration of vasopressin and leuprolide acetate. […] Vasopressin was injected intravenously ([…]) through a jugular catheter. The peptide was delivered vaginally in 5 ml of aqueous solution (200 g does). Standard errors are based on n=6. […] LHRH analog was injected intravenously ([…]) into through a jugular catheter. The peptide was delivered vaginally in 5 ml of aqueous solution (200 g dose). Standard errors are based on n=6.
as §1
To determine whether membrane damage might explain the results shown in FIG. 2, vasopressin was vaginally administered in methocel solutions of 1.5 and 1.75%.

As for `CCNC(=O)[C@@H]1CCCN1C(=O)[C@H](CCCN=C(N)N)NC(=O)[C@H](CC(C)C)NC(=O)[C@@H](Cc1c[nH]c2ccccc12)NC(=O)[C@H](Cc1ccc(O)cc1)NC(=O)[C@H](CO)NC(=O)[C@H](Cc1c[nH]c2ccccc12)NC(=O)[C@H](Cc1cnc[nH]1)NC(=O)[C@@H]1CCC(=O)N1` [DES, deslorelin], in data set [1] (200 μg daily vaginally in 5 mL gel for 17 days), the “average LH concentrations, DES versus control (gel only) group” value is “no differences”. The LH secretion entry in data set [1] (between days 6 and 12 of daily vaginal dosing) was “slightly suppressed”. For the same molecule, the “ewes that displayed a robust release of LH” value in data set [2] (DES in gel at end of 18-day period, CIDR in place approximately 24 days) is recorded as “none”. In data set [2] (vaginal treatment five days after CIDR insertion), the “ewes with a robust release of LH” value was “Five of the six”. Also, the LH release entry in data set [3] (same gel preparation injected subcutaneously) is on record as “obtained”. The “pituitary release of LH” value in data set [3] (vaginal administration in gel, systemic depot progesterone and progestogen ear implants) was “poor”. Moreover, the “ewes in which the change in LH between 0 and 120 minutes was greatest on the first day of administration” value in data set [4] (200 μg daily vaginally in 5 mL gel, progesterone-primed ovariectomized ewes) is listed as 3 of 6. Besides, the “ewes that transport GnRH” value in data set [4] (after four days of exposure to progesterone) is about 100%. Besides, the “ewes with significant transport” value in data set [4] (after only 24 hours of exposure to progesterone) is given as “Approximately 50%”. Also, in data set [4] (progesterone-primed ewes, daily treatment, time 0 sample (FIG. 8)), the “basal LH” value is “significant decreases”. Also, the “pituitary responsiveness with continued daily treatment” value in data set [4] (progesterone-primed ewes, first-treatment LH differential set to 100% (FIG. 7)) is on record as “significantly reduced”. In addition, the “time over which the change in LH secretion continued to increase after initiation of treatment” value in data set [4] (the two remaining animals of six) was in the range of 5 to 7 days. In addition, the “pituitary responsiveness once the maximum response was achieved” value in data set [4] (the two remaining animals of six (Ewe 9)) is listed as “rapidly declined”. For the same molecule, the “ewes that responded with a robust discharge of LH” value in data set [5] (200 μg vaginally in gel, 5 days after progesterone CIDR with or without estradiol implant, n=12) is given as “All ewes”. For the same molecule, the “time of peak LH” value in data set [5] (ewes treated only with progesterone) was determined as 120 min; in data set [5] (ewes treated with progesterone and estradiol), 240 min. Also, the “lag time between vaginal administration and transport of sufficient amounts into the blood to cause LH release” value in data set [5] (in vivo) was in the range of 70 to 80 min.
What is called bioavailability is dose-corrected exposure relative to a reference, in per cent. On to `CC(C)C[C@H](NC(=O)[C@H](CCCCN)NC(=O)CNC(=O)[C@H](CC(C)C)NC(=O)[C@@H](NC(=O)[C@@H]1CSSC[C@H](N)C(=O)N[C@@H](CO)C(=O)N[C@@H](CC(N)=O)C(=O)N[C@@H](CC(C)C)C(=O)N[C@@H](CO)C(=O)N[C@@H]([C@@H](C)O)C(=O)N1)C(C)C)C(=O)N[C@@H](CO)C(=O)N[C@@H](CCC(N)=O)C(=O)N[C@@H](CCC(=O)O)C(=O)N[C@@H](CC(C)C)C(=O)N[C@@H](Cc1c[nH]cn1)C(=O)N[C@@H](CCCCN)C(=O)N[C@@H](CC(C)C)C(=O)N[C@@H](CCC(N)=O)C(=O)N[C@H](C(=O)N[C@@H](Cc1ccc(O)cc1)C(=O)N1CCC[C@H]1C(=O)N[C@@H](CCCNC(=N)N)C(=O)N[C@H](C(=O)N[C@@H](CC(N)=O)C(=O)N[C@H](C(=O)NCC(=O)N[C@@H](CO)C(=O)NCC(=O)N[C@H](C(=O)N1CCC[C@H]1C(N)=O)[C@@H](C)O)[C@@H](C)O)[C@@H](C)O)[C@@H](C)O` [salmon calcitonin], for which the bioavailability in data set [6] is under 0.1%.
With `NC(=O)CC[C@@H]1NC(=O)[C@H](Cc2ccccc2)NC(=O)[C@H](Cc2ccc(O)cc2)NC(=O)[C@@H](N)CSSC[C@@H](C(=O)N2CCC[C@H]2C(=O)N[C@@H](CCCN=C(N)N)C(=O)NCC(N)=O)NC(=O)[C@H](CC(N)=O)NC1=O` [vasopressin], the systemic cortisol levels result in data set [7] (intravenous injection, within the first hour following treatment) is “high systemic cortisol levels”. In addition, the “changes in concentrations of cortisol” value in data set [7] (vaginal administration in methocel solutions of 1.5 and 1.75%) is “no detectable changes”. In data set [7] (vaginal administration, aqueous solution (FIG. 1a)), the “change in systemic cortisol levels” value was “no detectable change”. Moreover, the bioavailability in data set [6] (200 μg, vaginal administration in an aqueous buffer, leuprolide value based on biological response, read-out: bioavailability) was under 0.1%.
